Laboratory results taken from patent US11319322B2, “Substituted aryl ether compound, preparation method thereof, pharmaceutical composition and use thereof” (Xiamen University, priority 2017, dated 2022).
Blank lines part the entries; values can stand above or below the compound they belong to.

Key:
[1] = biological target: T1, CCDC6-RET-BaF3 (Homo sapiens, UniProt P07949); test: Growth inhibition of CCDC6-RET-BaF3 cells stably transfected with kinase (MTS); assay type: cell-based; conditions: 48 h, read-out: CCDC6-RET (IC50/nM)
T1 construct: fused on or other part: Q16204 (Coiled-coil domain-containing protein 6)
T1 sequence (P07949 whole entry, change not shown, the tested form may be a part): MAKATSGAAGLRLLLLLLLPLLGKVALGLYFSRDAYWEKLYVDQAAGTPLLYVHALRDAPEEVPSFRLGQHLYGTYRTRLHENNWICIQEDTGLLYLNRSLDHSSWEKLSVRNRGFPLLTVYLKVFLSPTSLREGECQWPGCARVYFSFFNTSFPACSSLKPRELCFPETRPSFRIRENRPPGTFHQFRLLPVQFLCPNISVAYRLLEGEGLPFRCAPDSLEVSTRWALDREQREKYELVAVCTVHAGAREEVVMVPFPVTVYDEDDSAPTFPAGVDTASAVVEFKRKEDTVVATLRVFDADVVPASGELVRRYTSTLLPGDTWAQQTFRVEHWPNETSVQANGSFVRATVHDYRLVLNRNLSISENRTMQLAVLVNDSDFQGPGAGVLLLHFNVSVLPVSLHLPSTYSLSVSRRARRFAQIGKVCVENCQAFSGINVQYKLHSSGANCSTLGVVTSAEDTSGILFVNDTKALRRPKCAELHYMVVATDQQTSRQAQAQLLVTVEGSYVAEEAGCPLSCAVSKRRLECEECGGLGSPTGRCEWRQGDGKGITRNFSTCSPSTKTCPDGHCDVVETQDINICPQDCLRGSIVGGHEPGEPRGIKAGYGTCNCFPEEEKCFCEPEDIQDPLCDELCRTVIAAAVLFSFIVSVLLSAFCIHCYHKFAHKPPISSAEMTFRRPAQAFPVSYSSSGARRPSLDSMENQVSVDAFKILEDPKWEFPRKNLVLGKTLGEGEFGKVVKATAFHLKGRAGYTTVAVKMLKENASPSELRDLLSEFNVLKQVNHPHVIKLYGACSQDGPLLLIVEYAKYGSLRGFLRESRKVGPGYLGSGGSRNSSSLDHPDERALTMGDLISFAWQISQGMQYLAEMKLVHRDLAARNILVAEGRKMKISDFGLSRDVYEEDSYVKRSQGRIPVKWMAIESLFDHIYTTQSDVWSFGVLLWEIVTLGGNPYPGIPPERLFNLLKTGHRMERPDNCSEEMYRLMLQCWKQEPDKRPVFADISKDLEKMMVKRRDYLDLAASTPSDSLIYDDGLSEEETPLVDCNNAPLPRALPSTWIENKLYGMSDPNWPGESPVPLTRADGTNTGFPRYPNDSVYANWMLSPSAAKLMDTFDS
Protocol: (§1) Growth inhibitory activity of compounds on cell lines stably transfected with kinase
(§2) The activity of compounds against kinase RET is evaluated by their effect of inhibiting growth of cell lines stably transfected with kinase CCDC6-RET-BaF3, KIF5B-RET-BaF3, and wild-type BaF3 (Proc. Natl. Acad. Sci. USA., 2006, 103, 3153-8.). The growth of the cell lines stably transfected with kinase CCDC6-RET-BaF3, KIF5B-RET-BaF3 depends on their kinase activity. If a compound can inhibit the activity of the kinase RET per se or the activity of the RET signaling pathway, the compound can inhibit the growth of BaF3 cells stably transfected with kinase. […] Therefore, a larger ratio between IC50 of a compound to wild-type BaF3 and IC50 of the compound to the cell lines stably transfected with kinase CCDC6-RET-BaF3, KIF5B-RET-BaF3 indicates better targeting.
(§3) The specific test method is given as follows:
(§4) 1) Medium: DMEM (Dulbecco's modified eagle medium) or RPMI 1640 (containing 10% fetal bovine serum, 100 μg/mL ampicillin, 100 μg/mL streptomycin).
(§5) 2) Reagents: MTS reaction solution (containing 2 mg/mL of MTS [3-(4,5-dimethylthiazol-2-yl)-5-(3-carboxymethoxyphenyl)-2-(4-sulfophenyl)-2H-tetrazolium, inner Salt]; 100 μg/mL PES (phenazine […])).
(§6) 3) Compound test: cells stably transfected with kinase (CCDC6-RET-BaF3, KIF5B-RET-BaF3) or wild-type BaF3 cells (2×10^4 cells/well) were incubated into a 96-well culture plate, the volume of cell culture fluid was 90 μL, and then 10 μL of the compound at each gradient concentration was added (the highest concentration was 10 μM, which was diluted stepwise by ⅓, and 8 concentration points were set in total; the system contained 0.1% DMSO (dimethyl sulfoxide)). The cell plate with uniformly mixed compound was cultured in a cell culture incubator (37° C.; 5% CO2) for 48 h, then 20 μL of MTS reaction solution was added, uniformly mixed and incubated in the cell culture incubator (37° C.; 5% CO2) for 1-4 hr, OD values at 490 nm were measured by a microplate reader (VARIOSKAN FLASH, Thermo). Three parallels were set in each group of experiments, with 0.1% (a final concentration) DMSO as a negative control, and a medium without cells or compounds as a blank control. The cell growth inhibition rate was calculated by the following formula: Cell growth inhibition rate %=1−(ODexperimental group−ODblank group)/(ODnegative group−ODblank group)×100%
(§7) 4) IC50 calculation: The semi-inhibitory concentration of the compound acting on cell growth was calculated using GradPad Prism 5 software according to the measured cell growth inhibition rate.

[2] = biological target: T2, KIF5B-RET-BaF3 (Homo sapiens, UniProt P07949); test: Growth inhibition of KIF5B-RET-BaF3 cells stably transfected with kinase (MTS); assay type: cell-based; conditions: 48 h, read-out: KIF5B-RET (IC50/nM)
T2 construct: fused on or other part: P33176 (Kinesin-1 heavy chain)
T2 sequence (P07949 whole entry, change not shown, the tested form may be a part): as above
Protocol: as §1, §2, §3, §4, §5, §6, §7

SMILES: Cc1ccc(Oc2cc(-c3cccnc3)nc3sccc23)cc1NC(=O)c1ccc(CN2CCN(C)CC2)c(C(F)(F)F)c1 [VII-j-1]
- GI50 [1]: 811 nM
- GI50 [2]: 1280 nM

SMILES: CN1CCN(Cc2cc(NC(=O)c3cccc(Oc4nc(-c5cccnc5)nc5ccn(C)c45)c3)cc(C(F)(F)F)c2)CC1 [III-p-3]
- GI50 [1]: 4530 nM
- GI50 [2]: 3380 nM

SMILES: Cc1ccc(-c2nc(Oc3ccc(Cl)c(NC(=O)c4ccc(CN5CCN(C)CC5)c(C(F)(F)F)c4)c3)c3[nH]ccc3n2)cc1 [III-k-15]
- GI50 [1]: 2200 nM
- GI50 [2]: 2380 nM

SMILES: Cc1ccc(Oc2nc(-c3ccncc3)nc3c2ncn3C(C)C)cc1C(=O)Nc1ccc(CN2CCN(C)CC2)c(C(F)(F)F)c1 [I-n-14]
- GI50 [1]: 163 nM
- GI50 [2]: 47 nM

SMILES: CN1CCN(Cc2ccc(NC(=O)c3cc(Oc4nc(-c5ccccc5)nc5c4ncn5C)ccc3Cl)cc2C(F)(F)F)CC1 [I-o-3]
- GI50 [1]: 1380 nM
- GI50 [2]: 1380 nM

SMILES: Cc1ccc(Oc2cc(-c3cn[nH]c3)nc3[nH]ccc23)cc1C(=O)Nc1ccc(CN2CCN(C)CC2)c(C(F)(F)F)c1 [V-n-12]
- GI50 [1]: 566 nM
- GI50 [2]: 673 nM

SMILES: CN1CCN(Cc2ccc(NC(=O)c3cccc(Oc4nc(-c5ccncc5)nc5ccn(C)c45)c3)cc2C(F)(F)F)CC1 [III-l-4]
- GI50 [1]: 18.7 nM
- GI50 [2]: 11.3 nM

SMILES: CCC(=O)NC1CCN(c2ccc(NC(=O)c3ccc(C)c(Oc4nc(-c5ccncc5)nc5ccn(C)c45)c3)cc2C(F)(F)F)CC1 [III-v-8]
- GI50 [1]: 10900 nM
- GI50 [2]: 4340 nM

SMILES: CCC(=O)NC1CCN(c2ccc(NC(=O)c3ccc(C)c(Oc4nc(-c5cccnc5)nc5c4cnn5C)c3)cc2C(F)(F)F)CC1 [II-v-12]
- GI50 [1]: 364 nM
- GI50 [2]: 118 nM

SMILES: CN1CCN(Cc2ccc(NC(=O)c3cc(Oc4nc(-c5ccc(O)cc5)nc5nn(C)cc45)ccc3Cl)cc2C(F)(F)F)CC1 [IV-o-7]
- GI50 [1]: 1510 nM
- GI50 [2]: 1610 nM

SMILES: Cc1ccc(Oc2nc(-c3ccc(Cl)cc3)nc3nn(C)cc23)cc1C(=O)Nc1ccc(CN2CCN(C)CC2)c(C(F)(F)F)c1 [IV-n-5]
- GI50 [1]: 2960 nM
- GI50 [2]: 2320 nM

SMILES: Cc1ccc(Oc2nc(-c3ccncc3)nc3nn(C)cc23)cc1NC(=O)c1cccc(C(F)(F)F)c1 [IV-c-2]
- GI50 [1]: 1680 nM
- GI50 [2]: 2840 nM

SMILES: CN1CCN(Cc2ccc(NC(=O)c3cc(Oc4cc(-c5cccnc5)nc5sccc45)ccc3Cl)cc2C(F)(F)F)CC1 [VII-o-1]
- GI50 [1]: 1570 nM
- GI50 [2]: 1630 nM

SMILES: CN1CCN(Cc2ccc(NC(=O)c3cc(Oc4nc(-c5ccsc5)nc5c4ncn5C)ccc3Cl)cc2C(F)(F)F)CC1 [I-o-11]
- GI50 [1]: 1680 nM
- GI50 [2]: 1560 nM

Other lines, results leading:

- GI50 [1]: 15.8 nM
- GI50 [2]: 114 nM
SMILES: CN1CCN(Cc2ccc(C(=O)Nc3cc(Oc4nc(-c5ccncc5)nc5c4cnn5C)ccc3Cl)cc2C(F)(F)F)CC1 [II-k-2]

- GI50 [1]: 178 nM
- GI50 [2]: 28.3 nM
SMILES: Cc1ccc(C(=O)Nc2ccc(CN3CCN(C)CC3)c(C(F)(F)F)c2)cc1Oc1nc(-c2cccc(O)c2)nc2c1cnn2C [II-m-7]

- GI50 [1]: 384 nM
- GI50 [2]: 84.6 nM
SMILES: Cc1ccc(C(=O)Nc2ccc(CN3CCN(C)CC3)c(C(F)(F)F)c2)cc1Oc1nc(N2CC(C)OC(C)C2)nc2c1cnn2C (stereo not drawn) [II-m-16]

- GI50 [1]: 3630 nM
- GI50 [2]: 1310 nM
SMILES: Cc1ccc(C(=O)Nc2ccc(CN3CCN(C)CC3)c(C(F)(F)F)c2)cc1Oc1nc(-c2ccncc2)nc2cc[nH]c12 [III-m-2]

- GI50 [1]: 31.8 nM
- GI50 [2]: 14.9 nM
SMILES: Cc1ccc(C(=O)Nc2ccc(CN3CCN(C)CC3)c(C(F)(F)F)c2)cc1Oc1nc(Nc2cccnc2)nc2c1cnn2C [II-m-11]

- GI50 [1]: 710 nM
- GI50 [2]: 1300 nM
SMILES: Cc1ccc(C(=O)Nc2ccc(CN3CCN(C)CC3)c(C(F)(F)F)c2)cc1Oc1nc(-c2cccnc2)nc2c1ncn2C [I-m-2]

- GI50 [1]: 4110 nM
- GI50 [2]: 2850 nM
SMILES: Cc1ccc(NC(=O)c2ccc(CN3CCN(C)CC3)c(C(F)(F)F)c2)cc1Oc1nc(-c2cccnc2)nc2cc[nH]c12 [III-i-1]
